Patent publication US20220054493A1, “INHIBITORS OF NGAL PROTEIN” (INSERM (INSTITUT NATIONAL DE LA SANTÉ ET DE LA RECHERCHE …, priority 2019, published 2022)

How the values were obtained:
[1] = molecular target: T1, NGAL (Homo sapiens, UniProt P80188); experiment: NGAL-induced profibrotic marker synthesis in human cardiac fibroblasts (western blot); assay type: cell-based; conditions: FIGS. 1 and 2 panel C
T1 construct: purchased R&D Systems
Experimental: (§1) Cell Culture Human cardiac fibroblasts (primary culture) were obtained from Promocell and maintained in medium (Fibroblast Media 3). Cells were cultured according to the manufacturer's instructions and used between passages 5 and 7. Cells were stimulated with aldosterone (10^-8 M, Sigma) or recombinant hNGAL (500 ng/mL, R&D Systems) for 24 h for protein analysis. Mouse kidney fibroblasts (MKF), were isolated from Wild Type (WT) mice. Briefly, mice 7 to 8 weeks were sacrificed by cervical dislocation and kidneys were cleaned and rinsed in cold DPBS (Dulbecco's Phosphate-Buffered Saline). The renal cortex was minced and incubated in Dulbecco's modified eagle medium/Nutrient mixture F-12 (DMEM/F12, Sigma) containing 1 mg/mL collagenase A (Roche) during 25 minutes at 37° C. […]
Total protein aliquots of 20 μg were prepared from cardiac homogenates and electrophoresed on SDS polyacrylamide gels and transferred to Hybond-c Extra nitrocellulose membranes (Amersham Biosciences). […] After densitometric analyses, optical density values were expressed as arbitrary units. Results are expressed as an n-fold increase over the values of the control group in densitometric arbitrary units.
The inhibitory activity of the compounds was evaluated on the NGAL-induced IL6 secretion (NGAL 10 ng/ml) in human cardiac fibroblasts. […]

[2] = Chemical stability; assay type: physicochemical
Experimental: Two specific toxicity assays have been performed to assess hepatoxicity and cardiotoxicity. Hepatotoxicity was evaluated in isolated hepatocytes from swiss mice and determined by the MTT colorimetric assay. Cardiotoxicity was evaluated using the commercially available Predictor hERG fluorescence polarization kit (Thermo Fisher Scientific). Several ADME assays have been carried out on the compounds generated throughout the project. The following experiments were undertaken: Stability in human microsomes, binding to human plasma protein, and CYP3A4 inhibition assay (Vivid CYP3A4 assay, Thermo Fisher Scientific). Physico-chemical properties were also assessed such as aqueous solubility and chemical stability.

[3] = molecular target: T2, recombinant murine NGAL (Mus musculus, UniProt P11672); experiment: NGAL-induced profibrotic and proinflammatory gene expression in renal fibroblasts; assay type: cell-based; conditions: renal fibroblast cells stimulated with recombinant murine NGAL
T2 construct: purchased R&D Systems
T2 sequence (P11672 21-200): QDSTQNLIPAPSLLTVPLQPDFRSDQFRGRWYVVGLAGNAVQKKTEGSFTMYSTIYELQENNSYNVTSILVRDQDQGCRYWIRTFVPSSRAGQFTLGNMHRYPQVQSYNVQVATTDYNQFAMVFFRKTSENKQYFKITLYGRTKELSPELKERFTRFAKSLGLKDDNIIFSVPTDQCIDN
Experimental: as §1, with “C. The digestion was inactivated by adding culture medium (DMEM/F12+10% FBS) then the cell suspension was passed through a 100-μm cell strainer. After centrifugation, the pellet (containing MKF) was diluted with culture medium then plated in 75 cm^2 culture flask.” for “C.”
Frozen tissues (kidneys, heart) were homogenized in TRIzol (Life Technologies, 15596018) using FastPrep beads (MP-Bio, 6913-100). cDNAs were generated using the Superscript II reverse transcriptase kit (Invitrogen, 18064022), and qPCR was performed as previously described. Briefly, transcript levels were analysed in a CFX396 apparatus (Biorad). […]

T1 sequence (P80188 21-198): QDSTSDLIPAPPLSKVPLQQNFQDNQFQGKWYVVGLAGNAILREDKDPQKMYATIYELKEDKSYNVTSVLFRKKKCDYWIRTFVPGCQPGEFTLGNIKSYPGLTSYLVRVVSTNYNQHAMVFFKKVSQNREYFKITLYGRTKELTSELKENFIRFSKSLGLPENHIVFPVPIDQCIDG

CC(=O)c1cccc(S(=O)(=O)NCc2ccccc2-n2cccn2)c1 [GPZ614741]
NGAL-induced profibrotic marker (col1, col III, fibronectin, Gal3, OPN) synthesis [1]: inhibited
Chemical Stability [2]: 103%
stability to acidic pH / digestive content [2]: fully stable
NGAL-induction of inflammatory (IL6, MCP1) gene expression ([3]; FIG. 16): inhibited
NGAL-induction of profibrotic (Collagen1, fibronectin, aSMA) gene expression ([3]; FIG. 16A): inhibited
